{"source": "ChEMBL document CHEMBL1201862", "about": "“PubChem BioAssay data set” (2004)", "assay_in_all_cases": "NCI-60 cell line screen, 48 h", "key": {"[1]": {"test_system": "786-0"}, "[2]": {"test_system": "A498"}, "[3]": {"test_system": "A549"}, "[4]": {"test_system": "ACHN"}, "[5]": {"test_system": "BT-549"}, "[6]": {"test_system": "CAKI-1"}, "[7]": {"test_system": "CCRF-CEM"}, "[8]": {"test_system": "COLO 205"}, "[9]": {"test_system": "DU-145"}, "[10]": {"test_system": "EKVX"}, "[11]": {"test_system": "HCC 2998"}, "[12]": {"test_system": "HCT-116"}, "[13]": {"test_system": "HCT-15"}, "[14]": {"test_system": "HL-60"}, "[15]": {"test_system": "HOP-62"}, "[16]": {"test_system": "HOP-92"}, "[17]": {"test_system": "HT-29"}, "[18]": {"test_system": "Hs-578T"}, "[19]": {"test_system": "IGROV-1"}, "[20]": {"test_system": "K562"}, "[21]": {"test_system": "KM12"}, "[22]": {"test_system": "LOX IMVI"}, "[23]": {"test_system": "M14"}, "[24]": {"test_system": "MCF7"}, "[25]": {"test_system": "MDA-MB-231"}, "[26]": {"test_system": "MDA-MB-435"}, "[27]": {"test_system": "MDA-N"}, "[28]": {"test_system": "MOLT-4"}, "[29]": {"test_system": "Malme-3M"}, "[30]": {"test_system": "NCI-H226"}, "[31]": {"test_system": "NCI-H23"}, "[32]": {"test_system": "NCI-H460"}, "[33]": {"test_system": "NCI-H522"}, "[34]": {"test_system": "NCI/ADR-RES"}, "[35]": {"test_system": "OVCAR-3"}, "[36]": {"test_system": "OVCAR-4"}, "[37]": {"test_system": "OVCAR-5"}, "[38]": {"test_system": "OVCAR-8"}, "[39]": {"test_system": "PC-3"}, "[40]": {"test_system": "RPMI-8226"}, "[41]": {"test_system": "RXF 393"}, "[42]": {"test_system": "SF-268"}, "[43]": {"test_system": "SF-295"}, "[44]": {"test_system": "SF-539"}, "[45]": {"test_system": "SK-MEL-28"}, "[46]": {"test_system": "SK-MEL-2"}, "[47]": {"test_system": "SK-MEL-5"}, "[48]": {"test_system": "SK-OV-3"}, "[49]": {"test_system": "SN12C"}, "[50]": {"test_system": "SNB-19"}, "[51]": {"test_system": "SNB-75"}, "[52]": {"test_system": "SR"}, "[53]": {"test_system": "SW-620"}, "[54]": {"test_system": "T47D"}, "[55]": {"test_system": "TK-10"}, "[56]": {"test_system": "U-251"}, "[57]": {"test_system": "UACC-257"}, "[58]": {"test_system": "UACC-62"}, "[59]": {"test_system": "UO-31"}}, "note": "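Tested at 5 concentrations; 48 h exposure; 96-well plates; endpoints linearly interpolated, else capped at highest concentration. GI50: concentration for 50% inhibition of growth.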 Active and inactive are the calls of the source. No stated cut-off is given here; in the data, active = GI50 up to about 1.1 µM and inactive = higher.", "data": [{"compound": "S=C1N=C2C(=N1)n1c3c(c4ccccc41)CCCC23", "note": "(centres undefined)", "values": [{"measurement": "GI50", "setting": "[1]", "value": "15.5 µM (inactive)"}, {"measurement": "GI50", "setting": "[2]", "value": "> 100 µM (inactive)"}, {"measurement": "GI50", "setting": "[3]", "value": "29.2 µM (inactive)"}, {"measurement": "GI50", "setting": "[4]", "value": "> 100 µM (inactive)"}, {"measurement": "GI50", "setting": "[5]", "value": "59.2 µM (inactive)"}, {"measurement": "GI50", "setting": "[6]", "value": "42.4 µM (inactive)"}, {"measurement": "GI50", "setting": "[7]", "value": "48.6 µM (inactive)"}, {"measurement": "GI50", "setting": "[8]", "value": "42 µM (inactive)"}, {"measurement": "GI50", "setting": "[9]", "value": "> 100 µM (inactive)"}, {"measurement": "GI50", "setting": "[10]", "value": "> 100 µM (inactive)"}, {"measurement": "GI50", "setting": "[11]", "value": "> 100 µM (inactive)"}, {"measurement": "GI50", "setting": "[12]", "value": "35.2 µM (inactive)"}, {"measurement": "GI50", "setting": "[13]", "value": 46.3, "unit": "µM"}, {"measurement": "GI50", "setting": "[14]", "value": "55.8 µM (inactive)"}, {"measurement": "GI50", "setting": "[15]", "value": "46 µM (inactive)"}, {"measurement": "GI50", "setting": "[16]", "value": "> 100 µM (inactive)"}, {"measurement": "GI50", "setting": "[17]", "value": "35.1 µM (inactive)"}, {"measurement": "GI50", "setting": "[18]", "value": "44.1 µM (inactive)"}, {"measurement": "GI50", "setting": "[19]", "value": "32.6 µM (inactive)"}, {"measurement": "GI50", "setting": "[20]", "value": "33.1 µM (inactive)"}, {"measurement": "GI50", "setting": "[21]", "value": "49.2 µM (inactive)"}, {"measurement": "GI50", "setting": "[22]", "value": "14.6 µM (inactive)"}, {"measurement": "GI50", "setting": "[23]", "value": "> 100 µM (inactive)"}, {"measurement": "GI50", "setting": "[24]", "value": "24 µM (inactive)"}, {"measurement": "GI50", "setting": "[25]", "value": "66.4 µM (inactive)"}, {"measurement": "GI50", "setting": "[26]", "value": "55.7 µM (inactive)"}, {"measurement": "GI50", "setting": "[27]", "value": "63.8 µM (inactive)"}, {"measurement": "GI50", "setting": "[28]", "value": "36.6 µM (inactive)"}, {"measurement": "GI50", "setting": "[29]", "value": "64.9 µM (inactive)"}, {"measurement": "GI50", "setting": "[30]", "value": "34.9 µM (inactive)"}, {"measurement": "GI50", "setting": "[31]", "value": "48.3 µM (inactive)"}, {"measurement": "GI50", "setting": "[32]", "value": "38.6 µM (inactive)"}, {"measurement": "GI50", "setting": "[33]", "value": "22.1 µM (inactive)"}, {"measurement": "GI50", "setting": "[34]", "value": "62.4 µM (inactive)"}, {"measurement": "GI50", "setting": "[35]", "value": "52.4 µM (inactive)"}, {"measurement": "GI50", "setting": "[36]", "value": "67.5 µM (inactive)"}, {"measurement": "GI50", "setting": "[37]", "value": "> 100 µM (inactive)"}, {"measurement": "GI50", "setting": "[38]", "value": "32.1 µM (inactive)"}, {"measurement": "GI50", "setting": "[39]", "value": "48.5 µM (inactive)"}, {"measurement": "GI50", "setting": "[40]", "value": "30 µM (inactive)"}, {"measurement": "GI50", "setting": "[41]", "value": "> 100 µM (inactive)"}, {"measurement": "GI50", "setting": "[42]", "value": "49 µM (inactive)"}, {"measurement": "GI50", "setting": "[43]", "value": "38.6 µM (inactive)"}, {"measurement": "GI50", "setting": "[44]", "value": "43.3 µM (inactive)"}, {"measurement": "GI50", "setting": "[45]", "value": "> 100 µM (inactive)"}, {"measurement": "GI50", "setting": "[46]", "value": "> 100 µM (inactive)"}, {"measurement": "GI50", "setting": "[47]", "value": "36.8 µM (inactive)"}, {"measurement": "GI50", "setting": "[48]", "value": "> 100 µM (inactive)"}, {"measurement": "GI50", "setting": "[49]", "value": "29.4 µM (inactive)"}, {"measurement": "GI50", "setting": "[50]", "value": "56.8 µM (inactive)"}, {"measurement": "GI50", "setting": "[51]", "value": "> 100 µM (inactive)"}, {"measurement": "GI50", "setting": "[52]", "value": "72.4 µM (inactive)"}, {"measurement": "GI50", "setting": "[53]", "value": "32.4 µM (inactive)"}, {"measurement": "GI50", "setting": "[54]", "value": "26 µM (inactive)"}, {"measurement": "GI50", "setting": "[55]", "value": "> 100 µM (inactive)"}, {"measurement": "GI50", "setting": "[56]", "value": "35 µM (inactive)"}, {"measurement": "GI50", "setting": "[57]", "value": "47.4 µM (inactive)"}, {"measurement": "GI50", "setting": "[58]", "value": "59.2 µM (inactive)"}, {"measurement": "GI50", "setting": "[59]", "value": "60.5 µM (inactive)"}]}]}
